Data: patent publication US7947854B2, “Bis-cationic compounds and use thereof” (The University of Sydney, priority 2003, dated 2011)
“And” between values parts separate entries of the source, which are not always exact repeats. Identical values can stand only once. Like-named read-outs stand apart in the source and are kept apart here.

Experiments:
Type in all cases: cell-based
erythrocyte = details: 37° C., 1 h
Protocol: Human blood was collected in 10 mL Vacutainer tubes containing potassium-EDTA as anticoagulant. The blood from each vacutainer was transferred to a 50 mL centrifuge tube and the cells washed three times with calcium- and magnesium-free phosphate buffered saline (PBS) (Gibco) by centrifugation at 2000×g for 15 min. The third supernatant was clear and colourless. Cells were stored in PBS for up to two weeks. The cell suspension in PBS (0.5 mL) was mixed with a stock solution of test substance (0.5 mL) at the appropriate concentration (final erythrocyte concentration of approx. 0.5×10^9 per mL). The mixtures were incubated at 37° C. for 1 h with gentle shaking, then centrifuged at 2000×g for 10 min. The supernatant was diluted 10-fold with PBS and the optical density measured at 540 nm. The values for 0% and 100% lysis were determined by incubating cells with PBS or 0.1% Triton X-100 (in water), respectively. Assays were carried out in triplicate.

M. gypseum = assay: Susceptibility of dermatophytes, broth microdilution NCCLS M38-P; details: for MIC: Nannizzia gypsea
Protocol: (§1) Isolates were tested using the method described in the National Committee for Clinical Laboratory Standards (NCCLS) document M38-P for filamentous fungi, with dermatophyte specific modifications described by Fernández-Torres et al, Current topics in Medical Mycology, 14-19 Feb. 1999.
(§2) Five dermatophyte isolates were, namely; T. rubrum, T. mentagrophytes, T. tonsurans, M. canis and M. gypseum, all of which produce lipases and some, phospholipase. These isolates were tested by the broth microdilution method according to NCCLS document M38-P, for activity against selected antifungal agents. In addition, ten randomly selected isolates of T. tonsurans were also tested. All isolates were maintained on SDA at 28° C. Candida parapsilosis (ATCC 20019) was used as the reference control is organism.
(§3) The microdilution plates used were a single lot of RPMI 1640 basal medium (JRH bioScience Inc. Lenexa, Kans., USA) with L-glutamine and without sodium bicarbonate, buffered to pH 7.0, at 25° C., with 0.165 M (MOPS) morpholinepropanesulfonic acid (Sigma).
(§4) Powdered drugs were dissolved in 100% dimethyl sulfoxide (DMSO), at concentrations 100 times higher than the final test concentration. All compounds were prepared in 100% (DMSO). For ITRA and TRB, two-fold drug dilutions were prepared in 100% DMSO at 100 times the final concentration, followed by further dilution 1:50 in RPMI medium, to yield 2× the final strength required for the test.
(§5) Fungal cultures were subcultured onto Potato Dextrose Agar and grown at 28° C. for 7-10 days. Fungal suspensions were covered with 5 ml of distilled water, and then colonies were scraped off with cotton tipped swabs. The resulting mixture of conidia and hyphae elements was withdrawn, transferred to a sterile tube and then vortexed with glass beads. After the particles settled, the upper homogeneous suspension was collected and its density adjusted by a densitometer to a 0.5 McFarland standard at the wavelength of 530 nm (80-85% transmittance). These stock suspensions were then diluted 1:50 with RPMI medium to obtain final working inoculum concentration ranging from 0.3×10^4 to 9×10^4 CFU/ml. Inoculum quantification was performed by plating 100 μl of the 1:1000 dilution of the adjusted inoculum on SDA plates, incubated at 28° C., and after 7 days of incubation, the colonies were counted.
(§6) Testing was based on NCCLS M38-P document for testing filamentous moulds. Testing was carried out in sterile 96-well flat bottomed microtitre plate. Columns 1 and 3 to 12 were filled with 100 μl of RPMI medium, leaving column 2 unfilled. Columns 1, 2 and 3 were filled with 100 μl of 2× drug concentration. Serial dilutions were then made by transferring 100 μl from column 3 to each column up to column 11, and 100 μl from column 11 was discarded. Column 12 served as drug free growth control. Finally, 100 μl of inoculum suspension was added to all wells except column 1, which acted as sterility control (Columns 1 and 12 served as sterility and growth control respectively). Plates were incubated at 28° C. for 7 days, and read at 3 days and 7 days of incubation. All testing was performed in duplicate, on three separate occasions.
(§7) Growth in microtitre trays were read by visual inspection by using an illuminated-reversed mirror. Growth in each well was compared with the “growth control” drug free well. The MIC end point for all the drugs was chosen to be the first well with 100% growth inhibition (i.e. the lowest drug concentration inhibiting growth).

T. rubrum = assay: as above; details: for MIC: Trichophyton rubrum
Protocol: as §1, §2, §3, §4, §5, §6, §7

T. tonsurans = assay: as above; details: for MIC: Trichophyton tonsurans
Protocol: as §1, §2, §3, §4, §5, §6, §7

M. canis = assay: as above; details: for MIC: Microsporum canis
Protocol: as §1, §2, §3, §4, §5, §6, §7

Question: What does the source list for `CCCC[N+](CCCC)(CCCC)CCCCCCCCCCCC[N+](CCCC)(CCCC)CCCC` [1,12-Bis-(tributylammonium)dodecane dichloride]?
Answer: Haemolytic assay (%) (erythrocyte; 3.5 μM): 0%; Haemolytic assay (%) (erythrocyte; 35 μM): 0%; Haemolytic assay (%) (erythrocyte; 88 μM): 0%; Haemolytic assay (%) (erythrocyte; 175 μM): 5%; Haemolytic assay (%) (erythrocyte; 350 μM): 100%; MIC (M. gypseum; Table 9, read-out: MIC M. gypseum): 3.8 µg/mL and 6.3 µM; MIC (T. rubrum; Table 9, read-out: MIC T. rubrum): 5.7 µg/mL and 9.4 µM; MIC (T. tonsurans; Table 9, read-out: MIC T. tonsurans): 3.8 µg/mL and 6.2 µM; MIC (M. canis; Table 9, read-out: MIC M. canis): 5.7 µg/mL and 9.4 µM

Question: `CCCC[P+](CCCC)(CCCC)CCCCCCCCCCCC[P+](CCCC)(CCCC)CCCC` [Compound 1, 1,12-bis(tributylphosphonium)dodecane dibromide] was tested. Which “Haemolytic assay (%)” value (erythrocyte; 3.5 μM) did it give?
Answer: 0%

Question: What about the “Haemolytic assay (%)” value (erythrocyte; 35 μM) of the same molecule?
Answer: 0%

Question: And the “Haemolytic assay (%)” value (erythrocyte; 88 μM)?
Answer: 0%

Question: What about the “Haemolytic assay (%)” value (erythrocyte; 175 μM) of the same molecule?
Answer: 0%

Question: And the “Haemolytic assay (%)” value (erythrocyte; 350 μM)?
Answer: 0%

Question: What about the “Haemolytic assay (%)” value (erythrocyte; 700 μM) of the same molecule?
Answer: 75%

Question: `CCCC[N+](CCCC)(CCCC)CCCCCCCCCCCC[N+](CCCC)(CCCC)CCCC` [Compound 3, 1,12-bis(tributylammonium)do-decane dibromide] was tested. Which “MIC Range, M. gypseum” value (M. gypseum; 100% growth inhibition, 28° C.) did it give?
Answer: 1.9 to 7.6 µg/mL

Question: What about the MIC (M. gypseum; 100% growth inhibition, 28° C., read-out: MIC GM, M. gypseum) of the same molecule?
Answer: 3.8 µg/mL

Question: What about the MIC (M. gypseum; 100% growth inhibition, 28° C., read-out: MIC Mean, M. gypseum) of the same molecule?
Answer: 4.75 µg/mL

Question: What about the “MIC Range, T. rubrum” value (T. rubrum; 100% growth inhibition, 28° C.) of the same molecule?
Answer: 3.8 to 7.6 µg/mL

Question: And the MIC (T. rubrum; 100% growth inhibition, 28° C., read-out: MIC GM, T. rubrum)?
Answer: 5.37 µg/mL

Question: And the MIC (T. rubrum; 100% growth inhibition, 28° C., read-out: MIC Mean, T. rubrum)?
Answer: 5.7 µg/mL

Question: And the “MIC Range, T. tonsurans” value (T. tonsurans; 100% growth inhibition, 28° C.)?
Answer: 1.9 to 7.6 µg/mL

Question: What about the MIC (T. tonsurans; 100% growth inhibition, 28° C., read-out: MIC GM, T. tonsurans) of the same molecule?
Answer: 3.38 µg/mL

Question: What about the MIC (T. tonsurans; 100% growth inhibition, 28° C., read-out: MIC Mean, T. tonsurans) of the same molecule?
Answer: 3.8 µg/mL

Question: What about the “MIC Range, M. canis” value (M. canis; 100% growth inhibition, 28° C.) of the same molecule?
Answer: 3.8 to 7.6 µg/mL

Question: What about the MIC (M. canis; 100% growth inhibition, 28° C., read-out: MIC GM, M. canis) of the same molecule?
Answer: 6.03 µg/mL

Question: What about the MIC (M. canis; 100% growth inhibition, 28° C., read-out: MIC Mean, M. canis) of the same molecule?
Answer: 6.33 µg/mL
